What all share (format): cell-based
Test [1] has as its system human microvascular endothelial cells. As to the kind of experiment: Inhibition of proliferation of human microvascular endothelial cells. The settings on record: normal human dermal microvascular endothelial cells, 2 days incubation with various concentrations, FIG. 1. As for the experimental part: Normal human dermal microvascular endothelial cells (Cell Systems Corporation) were subcultured in a medium (MVE medium, Cell Systems Corporation) for endothelial cell culture and used for the study. At the logarithmic growth phase, the medium was aspirated and cells were washed with phosphate-buffered saline (PBS(−)) which was added gentlely. Then, the PBS(−) was aspirated, an aliquot of 0.25% trypsin solution containing 0.02% EDTA was added to the culture plate, and the morphology of cells was observed under a phase-contrast microscopy. When cells were going to be round, an equal value of MVE medium was added to the trypsin solution to stop the action of trypsin. Attached cells were harvested from the plate by pipetting the medium using a slender pasture pipette. […] Number of viable cells in an aliquot of the suspension was counted under a phase-contrast microscopy using a hemocytometer. […]
Cell suspension (1 ml) was added to collagen-coated 6-well plate(Toyobo Engineering Co., Ltd.) and cultured at 37° C. under a humidified atmosphere of 5% CO2 in air. […] After harvesting cells from the plate by pipetting using a pasture pipete, number of viable cells was counted using a hemocytometer.
(§1) Mean and standard variation value of each group were calculated. […]

For test [2] the test system is unchanged. As to the kind of experiment: Tube formation of human microvascular endothelial cells on matrigel (length of tube structures). The settings on record: 18 hours incubation, various concentrations, FIG. 4. The procedure:
(§2) According to the method of Example 1 (1), human microvascular endothelial cells were cultured to prepare a cell suspension. Number of viable cells was counted under a phase-contrast microscopy using a hemocytometer and cell concentration was adjusted to 4×10^4 cells/ml.
Tranilast was added to 1% aqueous sodium bicarbonate solution to prepare 1.0% solution and dissolved by warming at 70° C. The solution was sterilized with millipore filter and diluted with MVE medium to a prescribed final concentration.
An aliquot (0.25 ml) of matrigel (10 mg/ml, Becton Dickinson Labware) was added to a 24-well culture plate (Corning) and was then allowed to solidify by incubation at 37° C. for 1 hour. Suspension (0.25 ml) of human microvascular endothelial cells (4×10^4 cells) and MVE medium (0.25 ml) containing various concentrations of Tranilast were added onto the gel. After 18 hours incubation at 37° C., 5 random fields of one well were photographed at ×40 magnification using a phase-contrast microscopy. The lengths of the tube structures were measured and the mean value was calculated.

For test [3] the test system is unchanged. As to the kind of experiment: Inhibition of chemotaxis of human microvascular endothelial cells to VEGF. The settings on record: chemotaxis to 100 ng/ml VEGF, 5 hours, 96-well micro chemotaxis chamber, FIG. 2. The procedure:
According to the method of Example 1 (1), human microvascular endothelial cells were cultured to prepare a cell suspension. Number of viable cells was counted under a phase-contrast microscopy using a hemocytometer and cell concentration was adjusted to 2×10^4 cells/ml.
Tranilast was added to 1% aqueous sodium bicarbonate solution to prepare 0.55% solution and dissolved by warming at 70° C. The solution was sterilized with millipore filter and diluted with DMEM+Ham (1:1) medium to a prescribed final concentration.
Chemotaxis of human dermal microvascular endothelial cells (prepared in (1)) to vascular endothelial growth factor (VEGF) was studied using a 96-well micro chemotaxis chamber (Neuro Probe Inc.). An aliquot (32 μl) of DMEM+Ham (1:1) medium containing 100 ng/ml of VEGF, 0.1% bovine serum and various concentrations of Tranilast was added to the lower cavity of the chemotaxis chamber. An aliquot (50 μl) of medium containing cell suspension and Tranilast was added to the upper cavity of the chamber. Polycarbonate filter (10 μm thickness with 8 μm pore size; Neuro Probe Inc.) coated with type-1 collagen was used for the chemotaxis membrane. […] Number of migrated cells was counted in 5 random fields at ×400 magnification under a phase-contrast microscopy and mean chemotaxis cell number was calculated.
as §1

Test [4] shares this test system. As to the kind of experiment: Tube formation of human microvascular endothelial cells on matrigel (number of formed network). The conditions noted are these: 18 hours incubation, various concentrations, FIG. 3. The procedure:
as §2
Tranilast was added to 1% aqueous sodium bicarbonate solution to prepare 0.5% solution and dissolved by warming at 70° C. The solution was sterilized with millipore filter and diluted with MVE medium to a prescribed final concentration.
An aliquot (0.25 ml) of matrigel (10 mg/ml, Becton Dickinson Labware) was added to a 24-well culture plate (Corning) and was then allowed to solidify by incubation at 37° C. for 1 hour. Suspension (0.25 ml) of human microvascular endothelial cells (4×10^4 cells) and MVE medium (0.25 ml) containing various concentrations of Tranilast were added onto the gel.

As for `COc1ccc(/C=C/C(=O)Nc2ccccc2C(=O)O)cc1OC` [Tranilast, N-(3,4-Dimethoxycinnamoyl)anthranilic acid], the “proliferation of human microvascular endothelial cells (number of viable cells)” value in test [1] is reported as “significantly suppressed”. Moreover, in test [2], the “length of the tube structure (tube formation)” value is recorded as “significantly reduced in a concentration-dependent manner”. Further, the “chemotaxis of human microvascular endothelial cells (number of migrated cells)” value in test [3] is listed as “significantly suppressed”. For the same molecule, in test [4], the “number of the formed network (tube formation)” value is “significantly reduced in a concentration-dependent manner”.

The record behind these values is patent publication US6407139B1, “Neovascularization inhibitor” (Kissei Pharmaceutical Co., Ltd., priority 1996, dated 2002).
